# From ChEMBL document CHEMBL1177642, “Synthesis and antibacterial studies of binaphthyl-based tripeptoids. Part 2” (2010)
# Experiments:
# Assay type in all cases: functional
# Enterococcus faecium [1] = test: Antimicrobial activity against vancomycin-resistant Enterococcus faecium 820 after overnight incubation
# Enterococcus faecium [2] = test: Antimicrobial activity against vancomycin-resistant Enterococcus faecium 987 after overnight incubation
# Staphylococcus aureus = test: Antimicrobial activity against methicillin-resistant Staphylococcus aureus ATCC 43300 after overnight incubation
# Enterococcus faecium [3] = test: Antimicrobial activity against vancomycin-resistant Enterococcus faecium 449 after overnight incubation
# Enterococcus faecium [4] = test: Antimicrobial activity against vancomycin-resistant Enterococcus faecium 243 after overnight incubation
smiles,measurement,setting,value
C=CC[C@H](NC(=O)[C@@H](CCCNC(=N)N)NC(=O)[C@@H](CCCCN)NC(=O)COc1ccc2ccccc2c1-c1c(OCCCc2ccccc2)ccc2ccccc12)C(=O)OCc1ccccc1.Cl.Cl,MIC50,Enterococcus faecium [1],31.3 µg/mL
same,MIC50,Enterococcus faecium [2],62.5 µg/mL
same,MIC50,Staphylococcus aureus,3.9 µg/mL
same,MIC50,Enterococcus faecium [3],31.3 µg/mL
same,MIC50,Enterococcus faecium [4],62.5 µg/mL
COCCOc1ccc2ccccc2c1-c1c(OCC(=O)N[C@H](CCCCN)C(=O)N[C@H](CCCNC(=N)N)C(=O)N[C@@H](CC(C)C)C(=O)OCc2ccccc2)ccc2ccccc12.Cl.Cl,MIC50,Enterococcus faecium [1],62.5 µg/mL
same,MIC50,Enterococcus faecium [2],62.5 µg/mL
same,MIC50,Staphylococcus aureus,3.9 µg/mL
same,MIC50,Enterococcus faecium [3],31.3 µg/mL
same,MIC50,Enterococcus faecium [4],125 µg/mL
C=CC[C@H](NC(=O)[C@@H](CCCNC(=N)N)NC(=O)[C@@H](CCCCN)NC(=O)COc1ccc2ccccc2c1-c1c(OCC(C)(C)C)ccc2ccccc12)C(=O)OCc1ccccc1.Cl.Cl,MIC50,Enterococcus faecium [1],31.3 µg/mL
same,MIC50,Enterococcus faecium [2],83.3 µg/mL
same,MIC50,Staphylococcus aureus,3.9 µg/mL
same,MIC50,Enterococcus faecium [3],62.5 µg/mL
same,MIC50,Enterococcus faecium [4],62.5 µg/mL
CC(C)CCOc1ccccc1-c1ccccc1OCC(=O)N[C@H](CCCCN)C(=O)N[C@H](CCCNC(=N)N)C(=O)N[C@@H](CC(C)C)C(=O)OCc1ccccc1.Cl.Cl,MIC50,Enterococcus faecium [1],31.3 µg/mL
same,MIC50,Enterococcus faecium [2],31.3 µg/mL
same,MIC50,Staphylococcus aureus,1.95 µg/mL
same,MIC50,Enterococcus faecium [3],31.3 µg/mL
same,MIC50,Enterococcus faecium [4],31.3 µg/mL
CN[C@H](CC(C)C)C(=O)N[C@H]1C(=O)N[C@@H](CC(N)=O)C(=O)N[C@H]2C(=O)N[C@H]3C(=O)N[C@H](C(=O)N[C@H](C(=O)O)c4cc(O)cc(O)c4-c4cc3ccc4O)[C@H](O)c3ccc(c(Cl)c3)Oc3cc2cc(c3O[C@@H]2O[C@H](CO)[C@@H](O)[C@H](O)[C@H]2O[C@H]2C[C@](C)(N)[C@H](O)[C@H](C)O2)Oc2ccc(cc2Cl)[C@H]1O [VANCOMYCIN],MIC50,Enterococcus faecium [1],> 125 µg/mL
same,MIC50,Enterococcus faecium [2],< 0.98 µg/mL
same,MIC50,Staphylococcus aureus,1.95 µg/mL
same,MIC50,Enterococcus faecium [3],62.5 µg/mL
same,MIC50,Enterococcus faecium [4],1.95 µg/mL
C=CC[C@H](NC(=O)[C@@H](CCCNC(=N)N)NC(=O)[C@@H](CCCCN)NC(=O)COc1ccc2ccccc2c1-c1c(OCC2CCCCC2)ccc2ccccc12)C(=O)OCc1ccccc1.Cl.Cl,MIC50,Enterococcus faecium [1],31.3 µg/mL
same,MIC50,Enterococcus faecium [2],62.5 µg/mL
same,MIC50,Staphylococcus aureus,3.9 µg/mL
same,MIC50,Enterococcus faecium [3],62.5 µg/mL
same,MIC50,Enterococcus faecium [4],62.5 µg/mL
C=CCOc1ccc2ccccc2c1-c1c(OCC(=O)N[C@H](CCCCN)C(=O)N[C@H](CCCNC(=N)N)C(=O)N[C@@H](CC=C)C(=O)OCc2ccccc2)ccc2ccccc12.Cl.Cl,MIC50,Enterococcus faecium [1],31.3 µg/mL
same,MIC50,Enterococcus faecium [2],31.3 µg/mL
same,MIC50,Staphylococcus aureus,1.96 µg/mL
same,MIC50,Enterococcus faecium [3],31.3 µg/mL
same,MIC50,Enterococcus faecium [4],31.3 µg/mL
CC(C)C[C@H](NC(=O)[C@@H](CCCNC(=N)N)NC(=O)[C@@H](CCCCN)NC(=O)COc1ccc2ccccc2c1-c1c(OCCC2CC2)ccc2ccccc12)C(=O)OCc1ccccc1.Cl.Cl,MIC50,Enterococcus faecium [1],62.5 µg/mL
same,MIC50,Enterococcus faecium [2],62.5 µg/mL
same,MIC50,Staphylococcus aureus,3.9 µg/mL
same,MIC50,Enterococcus faecium [3],31.3 µg/mL
same,MIC50,Enterococcus faecium [4],125 µg/mL
C[C@H](NC(=O)[C@@H](CCCNC(=N)N)NC(=O)[C@@H](CCCCN)NC(=O)COc1ccc2ccccc2c1-c1c(O)ccc2ccccc12)C(=O)OCc1ccccc1.Cl.Cl,MIC50,Enterococcus faecium [1],62.5 µg/mL
same,MIC50,Enterococcus faecium [2],125 µg/mL
same,MIC50,Staphylococcus aureus,7.8 µg/mL
same,MIC50,Enterococcus faecium [3],52.1 µg/mL
same,MIC50,Enterococcus faecium [4],125 µg/mL
C=CCOc1ccc2ccccc2c1-c1c(OCC(=O)OCC)ccc2ccccc12,MIC50,Enterococcus faecium [1],31.3 µg/mL
same,MIC50,Enterococcus faecium [2],62.5 µg/mL
same,MIC50,Staphylococcus aureus,3.9 µg/mL
same,MIC50,Enterococcus faecium [3],31.3 µg/mL
same,MIC50,Enterococcus faecium [4],31.3 µg/mL
CC(C)C[C@H](NC(=O)[C@@H](CCCNC(=N)N)NC(=O)[C@@H](CCCCN)NC(=O)COc1ccc2ccccc2c1-c1c(OCC#N)ccc2ccccc12)C(=O)OCc1ccccc1.Cl.Cl,MIC50,Enterococcus faecium [1],31.3 µg/mL
same,MIC50,Enterococcus faecium [2],62.5 µg/mL
same,MIC50,Staphylococcus aureus,3.9 µg/mL
same,MIC50,Enterococcus faecium [3],31.3 µg/mL
same,MIC50,Enterococcus faecium [4],62.5 µg/mL
C=CC[C@H](NC(=O)[C@@H](CCCNC(=N)N)NC(=O)[C@@H](CCCCN)NC(=O)COc1ccc2ccccc2c1-c1c(OCCCCC)ccc2ccccc12)C(=O)OCc1ccccc1.Cl.Cl,MIC50,Enterococcus faecium [1],31.3 µg/mL
same,MIC50,Enterococcus faecium [2],62.5 µg/mL
same,MIC50,Staphylococcus aureus,3.9 µg/mL
same,MIC50,Enterococcus faecium [3],62.5 µg/mL
same,MIC50,Enterococcus faecium [4],62.5 µg/mL
C=CC[C@H](NC(=O)[C@@H](CCCNC(=N)N)NC(=O)[C@@H](CCCCN)NC(=O)COc1ccc2ccccc2c1-c1c(OCc2ccccc2)ccc2ccccc12)C(=O)OCc1ccccc1.Cl.Cl,MIC50,Enterococcus faecium [1],62.5 µg/mL
same,MIC50,Enterococcus faecium [2],125 µg/mL
same,MIC50,Staphylococcus aureus,3.9 µg/mL
same,MIC50,Enterococcus faecium [3],62.5 µg/mL
same,MIC50,Enterococcus faecium [4],62.5 µg/mL
CC(C)CCOc1ccc2ccccc2c1-c1c(OCC(=O)N[C@H](CCCCN)C(=O)N[C@H](CCCNC(=N)N)C(=O)N[C@@H](CC(C)C)C(=O)Oc2ccccc2)ccc2ccccc12.Cl.Cl,MIC50,Enterococcus faecium [1],7.8 µg/mL
same,MIC50,Enterococcus faecium [2],15.6 µg/mL
same,MIC50,Staphylococcus aureus,3.9 µg/mL
same,MIC50,Enterococcus faecium [3],15.6 µg/mL
same,MIC50,Enterococcus faecium [4],15.6 µg/mL
CC(C)C[C@H](NC(=O)[C@@H](CCCNC(=N)N)NC(=O)[C@@H](CCCCN)NC(=O)COc1ccc2ccccc2c1-c1c(OCCc2ccccc2)ccc2ccccc12)C(=O)OCc1ccccc1.Cl.Cl,MIC50,Enterococcus faecium [1],15.6 µg/mL
same,MIC50,Enterococcus faecium [2],31.3 µg/mL
same,MIC50,Staphylococcus aureus,5.2 µg/mL
same,MIC50,Enterococcus faecium [3],31.3 µg/mL
same,MIC50,Enterococcus faecium [4],31.3 µg/mL
C=CC[C@H](NC(=O)[C@@H](CCCNC(=N)N)NC(=O)[C@@H](CCCCN)NC(=O)COc1ccc2ccccc2c1-c1c(OC)ccc2ccccc12)C(=O)OCc1ccccc1.Cl.Cl,MIC50,Enterococcus faecium [1],62.5 µg/mL
same,MIC50,Enterococcus faecium [2],125 µg/mL
same,MIC50,Staphylococcus aureus,7.8 µg/mL
same,MIC50,Enterococcus faecium [3],62.5 µg/mL
same,MIC50,Enterococcus faecium [4],125 µg/mL
CCCCCCCCOc1ccc2ccccc2c1-c1c(OCC(=O)N[C@H](CCCCN)C(=O)N[C@H](CCCNC(=N)N)C(=O)N[C@@H](CC(C)C)C(=O)OCc2ccccc2)ccc2ccccc12.Cl.Cl,MIC50,Enterococcus faecium [1],62.5 µg/mL
same,MIC50,Enterococcus faecium [2],125 µg/mL
same,MIC50,Staphylococcus aureus,13 µg/mL
same,MIC50,Enterococcus faecium [3],125 µg/mL
same,MIC50,Enterococcus faecium [4],125 µg/mL
C=CC[C@H](NC(=O)[C@@H](CCCNC(=N)N)NC(=O)[C@@H](CCCCN)NC(=O)COc1ccc2ccccc2c1-c1c(OCC2CCC2)ccc2ccccc12)C(=O)OCc1ccccc1.Cl.Cl,MIC50,Enterococcus faecium [1],31.3 µg/mL
same,MIC50,Enterococcus faecium [2],62.5 µg/mL
same,MIC50,Staphylococcus aureus,3.9 µg/mL
same,MIC50,Enterococcus faecium [3],52.1 µg/mL
same,MIC50,Enterococcus faecium [4],62.5 µg/mL
C=CC[C@H](NC(=O)[C@@H](CCCNC(=N)N)NC(=O)[C@@H](CCCCN)NC(=O)COc1ccc2ccccc2c1-c1c(OCC(C)C)ccc2ccccc12)C(=O)OCc1ccccc1.Cl.Cl,MIC50,Enterococcus faecium [1],31.3 µg/mL
same,MIC50,Enterococcus faecium [2],62.5 µg/mL
same,MIC50,Staphylococcus aureus,1.95 µg/mL
same,MIC50,Enterococcus faecium [3],52.1 µg/mL
same,MIC50,Enterococcus faecium [4],62.5 µg/mL
